Drawing on the SangsterLogP compilation, this text covers logP and logD for 64 compounds.

The structures appear in SMILES notation.

The nature of one data set: method code SF-AS, from DOI: 10.1248/bpb1978.7.120, PMID: 6427444.
Conditions: not given
Compound `COC12C(COC(N)=O)C3=C(C(=O)C(C)=C(N)C3=O)N1CC1C2N1C(=O)OCc1ccccc1` (centres undefined) registered a log partition coefficient (logP) of 2.05. In turn, `CCCCCOC(=O)N1C2CN3C4=C(C(=O)C(N)=C(C)C4=O)C(COC(N)=O)C3(OC)C21` (centres undefined) displayed a log partition coefficient (logP) of 2.45.

`CCCCCCCCCOC(=O)N1[C@H]2[C@@H]1CN1C3=C(C(=O)C(N)=C(C)C3=O)[C@@H](COC(N)=O)[C@@]21OC` showed a logP of 3.56.

In turn, `CCCOC(=O)N1C2CN3C4=C(C(=O)C(N)=C(C)C4=O)C(COC(N)=O)C3(OC)C21` (centres undefined) displayed a logP of 1.51. The compound `COC12C(COC(N)=O)C3=C(C(=O)C(C)=C(N)C3=O)N1CC1C2N1C(=O)OC1CCC2=CCC3C(CCC4(C)C(C(C)CCCC(C)C)CCC34)C2(C)CC1` (centres undefined) came in with a log partition coefficient (logP) of 3.88.

In turn, `COC12C(COC(N)=O)C3=C(C(=O)C(C)=C(N)C3=O)N1CC1C2N1C(=O)Cc1ccccc1` (centres undefined) showed a logP of 1.54.

Another data set can be described thus: method code SF-HPLC, from DOI: 10.1016/s0006-2952(00)00420-2, PMID: 10974206.
Conditions: not given
The compound `CN(C)CCCNc1c2ccccc2nc2ccccc12` came in with a logP of 3.6. In turn, `C[N+](C)([O-])CCCNc1c2ccccc2nc2ccccc12` returned a logP of 0.4. Compound `CN(C)CCCNc1c2ccccc2[n+]([O-])c2ccccc12` registered a logP of 2.5. On the same count and under the same terms, then `CN(C)CCCNc1c2ccccc2[n+]([O-])c2cccc([N+](=O)[O-])c12`, with 3.1; and `C[N+](C)([O-])CCCNc1c2ccccc2nc2cccc([N+](=O)[O-])c12`, with 1.4. The compound `CN(C)CCCNc1c2ccccc2nc2cccc([N+](=O)[O-])c12` returned a log partition coefficient (logP) of 3.8.

Assay in another data set: not given
Conditions: not given
Compound `O=C1c2c(O)cccc2C(C(=O)c2ccccc2)c2cccc(O)c21` yielded a logP of 3.81. On the same count and under the same terms, then `O=C1c2c(O)cccc2C(C(=O)c2ccc(O)c(O)c2)c2cccc(O)c21`, with 2.79; and `O=C1c2c(O)cccc2C(C(=O)c2ccc(OCc3ccccc3)cc2)c2cccc(O)c21`, with 4.22. With `O=C1c2c(O)cccc2C(C(=O)c2cc(O)c(O)c(O)c2)c2cccc(O)c21`, the logP stood at 2.44. `O=C1c2c(O)cccc2C(C(=O)c2ccc(O)cc2)c2cccc(O)c21` showed a log partition coefficient (logP) of 3.11.

Regarding `O=C1c2c(O)cccc2C(C(=O)c2ccc3c(c2)OCO3)c2cccc(O)c21`, the logP was determined as 3.68.

The nature of another data set: method code SF-HPLC, from DOI: 10.1016/0731-7085(91)80215-u, PMID: 1821151. The conditions noted are these: pH 7.4.
Turning to `CCC(C(=O)OCc1ccccc1)C(COC(=O)c1cccc(Cl)c1)c1cncn1C` (centres undefined), the pH-dependent lipophilicity (logD) came out at 5.64. The compound `CCC(C(=O)OCc1ccccc1)C(COC(C)=O)c1cncn1C` (centres undefined) gave a logD of 2.87. Consider `CCC(C(=O)OCc1ccccc1)C(COC(=O)c1ccccc1)c1cncn1C` (centres undefined), for which the logD was 4.57.

For `CCC(=O)OCC(c1cncn1C)C(CC)C(=O)OCc1ccccc1` (centres undefined), the logD amounted to 3.3. Same read-out and setting: then `CCCCC(=O)OCC(c1cncn1C)C(CC)C(=O)OCC1CCCCC1` (centres undefined), with 5.56; and `CCCCC(=O)OCC(c1cncn1C)C(CC)C(=O)OCc1ccccc1` (centres undefined), with 4.43.

A short description of the next data set: method code SF-AS, from DOI: 10.1016/0304-4165(87)90236-4, PMID: 2889474.
Conditions: not given
In turn, `CC1=C2[C@@H](C[C@@H](C)[C@@H]3C=CC(=O)[C@@]3(C)[C@H]2O)OC1=O` had a logP of 1.13. For the compound `C=C1C(=O)O[C@@H]2C[C@@H](C)[C@@H]3C4CC(=O)[C@]3(C[C@H]12)[C@@]1(C4)C(=O)O[C@@H]2C[C@@H](C)[C@@H]3C=CC(=O)[C@@]3(C)[C@@H](O)[C@@H]21`, the logP turned out to be 1.66.

Consider `C=C1C(=O)O[C@@H]2C[C@@H](C)[C@@H]3C=CC(=O)[C@@]3(C)[C@@H](OC(=O)CCCC(=O)O[C@H]3[C@@H]4C(=C)C(=O)O[C@@H]4C[C@@H](C)[C@@H]4C=CC(=O)[C@]43C)[C@H]12`, for which the logP was found to be 1.37. On the same count and under the same terms, under `C=C1C(=O)O[C@@H]2C[C@@H](C)[C@@H]3C=CC(=O)[C@@]3(C)[C@@H](OC(=O)CC(=O)O[C@H]3[C@@H]4C(=C)C(=O)O[C@@H]4C[C@@H](C)[C@@H]4C=CC(=O)[C@]43C)[C@H]12` stands 1.33.

`CC1CC2OC(=O)C3(C)C2C(OC3(C)O)C2(C)C(=O)C=CC12` (centres undefined) came in with a log partition coefficient (logP) of 0.3.

In the case of `C[C@@H]1C[C@H]2OC(=O)[C@@H](C)[C@H]2[C@H](O)[C@]2(C)C(=O)C=C[C@@H]12`, the logP amounted to 0.53.

A further data set is described as follows: method code SF-AS, from DOI: 10.1016/s0020-1693(00)85781-3.
Conditions: not given
As to `c1ccc2c(c1)COCCOCCOCCOCCOC2`, the logP was determined as 0.7. The same measure, in the same setting: then `c1ccc2c(c1)COCCOCCOCCOCCOCc1ccccc1COCCOCCOCCOCCOC2`, with 1.84; and `CC(C)(C)c1ccc2c(c1)COCCOCCOCCOCCOCc1cc(C(C)(C)C)ccc1COCCOCCOCCOCCOC2`, with 3.32; and `CC(=O)c1ccc2c(c1)COCCOCCOCCOCCOCCOC2`, with -0.05. On to `O=C(O)c1ccc2c(c1)COCCOCCOCCOCCOCCOC2`, for which the lipophilicity (logP) was -0.28. The same measure, in the same setting: then `c1ccc2c(c1)COCCOCCOCCOCCOCCOC2`, with 0.15.

Assay in a further data set: not given
Conditions: not given
This is another data set of the same source.
For `CC[C@H]1OC(=O)C[C@@H](O)[C@H](C)[C@@H](O[C@@H]2O[C@H](C)[C@@H](O)[C@H](N(C)C)[C@H]2O)[C@@H](CC=O)C[C@@H](C)C(=O)/C=C/C(C)=C/[C@@H]1CO`, the logP is 0.99.

`CCC1OC(=O)CC(O)C(C)C(O[C@H]2OC(C)C(O)C(N(C)C)C2O)C(CCN2CC(C)CC(C)C2)CC(C)C(=O)C=CC(C)=CC1COC1OC(C)C(O)C(OC)C1OC` (some centres undefined) yielded a log partition coefficient (logP) of 3.8. `CC[C@H]1OC(=O)[C@H](C)[C@@H](O[C@H]2C[C@@](C)(OC)[C@@H](O)[C@H](C)O2)[C@H](C)[C@@H](O[C@@H]2O[C@H](C)C[C@H](N(C)C)[C@H]2O)[C@](C)(O)C[C@@H](C)C(N)[C@H](C)[C@H]2OC(=O)O[C@@]21C` (some centres undefined) gave a logP of 2.92. The same measure, in the same setting: under `CO[C@H]1C[C@H](O[C@H]2[C@H](C)[C@@H](O[C@@H]3O[C@H](C)C[C@H](N(C)C)[C@H]3O)[C@@H](C)C[C@@]3(CO3)C(=O)[C@H](C)[C@@H](O)[C@@H](C)[C@@H](C)OC(=O)[C@@H]2C)O[C@@H](C)[C@@H]1O` stands 1.69.

Regarding `CCC1OC(=O)CC(O)C(C)C(OC2OC(C)C(OC3C[C@@](C)(O)C(O)C(C)O3)C(N(C)C)C2O)C(CC=O)CC(C)C(=O)C=CC(C)=CC1COC1OC(C)C(O)C(OC)C1OC` (some centres undefined), the lipophilicity (logP) came to 1.63.

For `CO[C@@H]1[C@@H](O[C@@H]2O[C@H](C)[C@@H](O[C@H]3C[C@@](C)(O)[C@@H](OC(=O)CC(C)C)[C@H](C)O3)[C@H](N(C)C)[C@H]2O)[C@@H](CC=O)C[C@@H](C)C(=O)/C=C/C2OC2C[C@@H](C)OC(=O)C[C@H]1OC(C)=O` (some centres undefined), the logP stood at 3.04.

The nature of the next data set: method code SF-AS, from DOI: 10.1081/jlc-120022394.
Conditions: not given
In turn, `CCOC(=O)C(=Cc1ccoc1)NC=O` returned a logP of 2.08.

Regarding `CCOC(=O)C(=CC=Cc1ccccc1)NC=O`, the log partition coefficient (logP) was 2.91.

For the compound `CCOC(=O)C(=Cc1ccccc1)NC=O`, the logP was 2.48.

`CCOC(=O)C(=Cc1ccccc1Cl)NC=O` came in with a logP of 2.41. The logP values of the last two compounds are within 0.2 log units of each other. As for `CCOC(=O)C(=Cc1cccc(Cl)c1)NC=O`, the logP was determined as 2.51. For the compound `CCOC(=O)C(=Cc1ccc2c(c1)OCO2)NC=O`, the log partition coefficient (logP) was 1.66.

The next data set in a line: method code SF-AS, from DOI: 10.1248/cpb.17.2558. To be noted: pH 2.0.
In the case of `NS(=O)(=O)c1ccc([N+](=O)[O-])c(C(F)(F)F)c1`, the logD stood at 1.73. `NS(=O)(=O)c1ccc(Cl)c([N+](=O)[O-])c1` displayed a logD of 1.91. For the compound `Cc1cccc(S(N)(=O)=O)c1`, the logD was determined as 0.85. In turn, `Cc1ccccc1S(N)(=O)=O` yielded a logD of 0.84. This logD and that of the compound before are within 0.2 log units of each other.

The same data set, now with this note: pH 5.5.
Take `Nc1nnc(S(N)(=O)=O)s1`: the logD was -0.9.

A further data set in a line: method code SF, from DOI: 10.1021/jm00294a005, PMID: 5000561.
Conditions: not given
The compound `CCCCC1CC(C(=O)NC(CC(C)O)C2OC(SC)C(O)C(O)C2O)N(C)C1` (centres undefined) showed a lipophilicity (logP) of 0.56. In turn, `CCC(=O)O[C@H]1[C@H](C)O[C@@H](O[C@H]2[C@H](N(C)C)[C@@H](O)[C@H](O[C@H]3[C@@H](CC=O)C[C@@H](C)[C@@H](O)/C=C/C=C/C[C@@H](C)OC(=O)C[C@@H](O)[C@@H]3OC)O[C@@H]2C)C[C@@]1(C)O` gave a logP of 1.38. `CCCC(=O)OC1C(C)OC(OC2C(C)OC(OC3C(CC=O)CC(C)C(O)/C=C\C=C\CC(C)OC(=O)CC(OC(C)=O)C3OC)C(O)C2N(C)C)CC1(C)O` (centres undefined): the logP turned out to be 1.88.

In turn, `CO[C@@H]1[C@@H](O[C@@H]2O[C@H](C)[C@@H](O[C@H]3C[C@@](C)(O)[C@@H](OC(C)=O)[C@H](C)O3)[C@H](N(C)C)[C@H]2O)[C@@H](CC=O)C[C@@H](C)[C@@H](O)/C=C/C=C/C[C@@H](C)OC(=O)C[C@H]1OC(C)=O` displayed a logP of 0.88. Compound `CCCC(=O)O[C@H]1[C@H](C)O[C@@H](O[C@H]2[C@H](N(C)C)[C@@H](O)[C@H](O[C@H]3[C@@H](CC=O)C[C@@H](C)[C@@H](O)/C=C/C=C/C[C@@H](C)OC(=O)C[C@@H](O)[C@@H]3OC)O[C@@H]2C)C[C@@]1(C)O` displayed a logP of 1.88.

Take `CO[C@@H]1[C@@H](O[C@@H]2O[C@H](C)[C@@H](O[C@H]3C[C@@](C)(O)[C@@H](OC(C)=O)[C@H](C)O3)[C@H](N(C)C)[C@H]2O)[C@@H](CC=O)C[C@@H](C)[C@@H](O)/C=C\C=C/C[C@@H](C)OC(=O)C[C@H]1O`: the logP came out at 0.88.

Assay in a further data set: not given
Conditions: not given
The source holds these as a separate data set.
Take `ClC(Cl)=C(c1ccc(Cl)cc1)c1ccc(Cl)cc1`: the logP came to 5.89. Still for that read-out and setting: under `CCCCCCCCOC(=O)COc1ccc(Cl)cc1Cl` stands 5.86; under `FC(F)(Cl)C(F)(Cl)Cl`, 3.16; under `ClC1=C(Cl)C(Cl)(Cl)C(Cl)=C1Cl`, 5.04. The same measure, in the same setting: then `C1CCCCCC2OC2CCCC1` (centres undefined), with 4.7.

For orientation: logP means a log measure of how a compound divides between an organic and an aqueous phase. The low end stands for a more hydrophilic compound, the high end for a more lipophilic compound. Broadly, the logD is the decadic logarithm of the distribution of all forms, ionised or not, between an organic phase and buffer at a given pH. A higher logD goes with higher lipophilicity.
